# From publication PMC5416783, “Inhibition of homologous phosphorolytic ribonucleases by citrate may represent an evolutionarily conserved communicative link between RNA degradation and central metabolism” (Nucleic Acids Research, 2017)
# Key:
# Assay in all cases: end-point exoribonuclease gel assay, […]'-FAM-A20 RNA
# Format in all cases: biochemical
# [1] = molecular target: T1, H. sapiens PNPase (hPNPase) (Homo sapiens, UniProt Q8TCS8); details: inhibition; 700 nM FAM-A20 RNA, 240 nM enzyme, 3.75 mM MgCl2, phosphate, pH 8, 37 °C, 60 min; control without citrate 8.4 ± 2.8 %
# T1 construct: gene PNPT1; N-terminal hexahistidine tag (pET-28b), codon-optimised, expressed in E. coli BL21(DE3)pLysS; homotrimer
# T1 sequence (Q8TCS8 46-783): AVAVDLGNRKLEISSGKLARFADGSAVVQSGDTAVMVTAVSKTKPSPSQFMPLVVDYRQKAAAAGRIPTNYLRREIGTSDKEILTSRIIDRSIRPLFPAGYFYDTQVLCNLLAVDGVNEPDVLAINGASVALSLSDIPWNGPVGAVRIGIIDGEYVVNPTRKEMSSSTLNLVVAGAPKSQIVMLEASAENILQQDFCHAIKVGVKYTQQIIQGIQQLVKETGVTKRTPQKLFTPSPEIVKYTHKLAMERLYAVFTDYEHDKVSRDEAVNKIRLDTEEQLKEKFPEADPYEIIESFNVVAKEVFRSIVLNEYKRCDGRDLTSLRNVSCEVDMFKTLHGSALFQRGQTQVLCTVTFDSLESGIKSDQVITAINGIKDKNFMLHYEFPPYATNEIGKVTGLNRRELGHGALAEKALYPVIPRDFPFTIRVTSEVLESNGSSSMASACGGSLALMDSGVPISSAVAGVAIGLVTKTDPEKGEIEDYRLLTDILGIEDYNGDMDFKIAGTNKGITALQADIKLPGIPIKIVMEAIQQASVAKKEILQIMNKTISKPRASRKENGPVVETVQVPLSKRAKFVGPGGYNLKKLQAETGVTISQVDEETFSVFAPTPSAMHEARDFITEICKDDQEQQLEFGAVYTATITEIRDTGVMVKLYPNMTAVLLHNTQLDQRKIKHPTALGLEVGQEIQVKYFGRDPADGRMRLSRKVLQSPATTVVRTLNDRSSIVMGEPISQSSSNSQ
# [2] = molecular target: T2, E. coli PNPase (EcPNPase) (Escherichia coli, UniProt P05055); details: inhibition; 700 nM FAM-A20 RNA, 240 nM enzyme, 3.75 mM MgCl2, phosphate, pH 8, 37 °C, 10 min; control without citrate 2.2 ± 0.4 %
# T2 construct: gene pnp; pET-Duet1_EcPNPase expressed in E. coli BL21(DE3)pLysS; homotrimer
# T2 sequence (P05055 1-711): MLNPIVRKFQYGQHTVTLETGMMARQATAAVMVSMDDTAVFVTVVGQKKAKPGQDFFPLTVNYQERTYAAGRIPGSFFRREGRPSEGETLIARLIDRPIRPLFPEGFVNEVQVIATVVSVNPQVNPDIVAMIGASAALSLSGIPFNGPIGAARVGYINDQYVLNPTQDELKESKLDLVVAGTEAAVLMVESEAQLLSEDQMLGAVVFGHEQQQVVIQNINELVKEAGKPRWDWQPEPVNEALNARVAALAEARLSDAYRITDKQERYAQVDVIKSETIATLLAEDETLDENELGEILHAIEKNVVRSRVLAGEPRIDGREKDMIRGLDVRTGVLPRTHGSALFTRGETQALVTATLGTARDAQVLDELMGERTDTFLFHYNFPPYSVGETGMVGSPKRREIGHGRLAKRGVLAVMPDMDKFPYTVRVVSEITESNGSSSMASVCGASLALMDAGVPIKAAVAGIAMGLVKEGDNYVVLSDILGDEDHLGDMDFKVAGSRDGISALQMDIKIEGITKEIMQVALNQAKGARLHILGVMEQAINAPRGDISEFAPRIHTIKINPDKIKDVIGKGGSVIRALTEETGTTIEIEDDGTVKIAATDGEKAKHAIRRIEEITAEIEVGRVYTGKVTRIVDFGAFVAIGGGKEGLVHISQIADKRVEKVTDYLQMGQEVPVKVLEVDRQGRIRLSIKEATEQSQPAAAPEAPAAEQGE
# [3] = molecular target: T3, Synechocystis sp. PNPase (SspPNPase) (Synechocystis sp. PCC 6803, UniProt P72659); details: inhibition; 700 nM FAM-A20 RNA, 240 nM enzyme, 3.75 mM MgCl2, phosphate, pH 8, 37 °C, 30 min; control without citrate 2.2 ± 0.2 %
# T3 construct: gene pnp; recombinant, commercial (Sigma)
# T3 sequence (P72659 1-718): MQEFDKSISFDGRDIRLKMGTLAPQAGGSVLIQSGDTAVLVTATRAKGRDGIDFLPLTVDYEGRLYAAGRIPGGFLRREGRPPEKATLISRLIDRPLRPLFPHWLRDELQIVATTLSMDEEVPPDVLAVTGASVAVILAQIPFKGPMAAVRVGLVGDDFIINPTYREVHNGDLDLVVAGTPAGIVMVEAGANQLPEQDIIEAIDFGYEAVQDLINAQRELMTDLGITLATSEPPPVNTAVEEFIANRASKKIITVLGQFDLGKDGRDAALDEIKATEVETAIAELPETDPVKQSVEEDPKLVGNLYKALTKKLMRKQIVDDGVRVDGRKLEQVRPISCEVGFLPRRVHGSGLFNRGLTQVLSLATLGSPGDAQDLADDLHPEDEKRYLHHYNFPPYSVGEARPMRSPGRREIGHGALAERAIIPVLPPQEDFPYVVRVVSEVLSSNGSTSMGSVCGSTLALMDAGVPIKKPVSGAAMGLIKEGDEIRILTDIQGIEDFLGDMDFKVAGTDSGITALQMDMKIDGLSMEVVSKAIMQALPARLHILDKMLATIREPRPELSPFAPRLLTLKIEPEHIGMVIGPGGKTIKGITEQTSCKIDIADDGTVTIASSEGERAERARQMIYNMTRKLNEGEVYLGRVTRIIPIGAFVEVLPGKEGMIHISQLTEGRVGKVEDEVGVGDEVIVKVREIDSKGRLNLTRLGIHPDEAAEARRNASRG
# [4] = molecular target: T4, S. solfataricus Exosome (SsoExosome) (Saccharolobus solfataricus, UniProt Q9UXC0+Q9UXC2); details: inhibition; 700 nM FAM-A20 RNA, 240 nM enzyme, 3.75 mM MgCl2, phosphate, pH 8, 37 °C, 10 min; control without citrate 4.0 ± 0.5 %
# T4 construct: gene rrp41; N-terminal hexahistidine Rrp4 co-expressed with untagged Rrp41 and Rrp42 in E. coli BL21(DE3)pLysS; codon-optimised; trimer of Rrp41/Rrp42 dimers with Rrp4 cap; with Exosome complex component Rrp4
# T4 sequence (Q9UXC2 1-248): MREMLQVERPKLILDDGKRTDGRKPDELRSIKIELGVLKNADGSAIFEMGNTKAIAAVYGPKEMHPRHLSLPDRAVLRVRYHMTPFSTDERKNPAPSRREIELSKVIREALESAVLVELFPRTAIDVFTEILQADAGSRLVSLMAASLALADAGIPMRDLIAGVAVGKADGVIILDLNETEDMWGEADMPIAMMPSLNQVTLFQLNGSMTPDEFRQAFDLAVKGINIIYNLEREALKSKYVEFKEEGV
# T4 sequence (Q9UXC0 1-275): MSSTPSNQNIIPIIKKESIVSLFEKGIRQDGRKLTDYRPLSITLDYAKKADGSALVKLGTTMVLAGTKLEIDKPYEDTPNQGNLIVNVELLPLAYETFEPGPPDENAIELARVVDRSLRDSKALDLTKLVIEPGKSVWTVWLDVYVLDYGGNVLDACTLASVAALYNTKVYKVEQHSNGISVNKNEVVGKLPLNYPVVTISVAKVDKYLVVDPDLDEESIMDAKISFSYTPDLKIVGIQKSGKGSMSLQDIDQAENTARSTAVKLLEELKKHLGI
# T4 sequence (Q9UXC4 1-249 partner): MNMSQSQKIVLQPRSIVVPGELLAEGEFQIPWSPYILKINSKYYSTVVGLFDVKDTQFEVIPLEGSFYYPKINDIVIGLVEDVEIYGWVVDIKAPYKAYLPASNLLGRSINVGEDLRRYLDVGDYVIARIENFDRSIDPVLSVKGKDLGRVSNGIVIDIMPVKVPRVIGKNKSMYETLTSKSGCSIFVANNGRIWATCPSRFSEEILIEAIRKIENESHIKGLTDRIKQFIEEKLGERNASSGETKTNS
structure (smiles),measurement,setting,value
O=C(O)CC(O)(CC(=O)O)C(=O)O [citrate],Percentage substrate remaining at assay end-point / + citrate,[1],22.8 ± 4.8%
same,Percentage substrate remaining at assay end-point / + citrate,[2],5.6 ± 1.5%
same,Percentage substrate remaining at assay end-point / + citrate,[3],6.9 ± 2.2%
same,Percentage substrate remaining at assay end-point / + citrate,[4],13.6 ± 0.5%
